Among the data in article PMC6478789, “A chemical toolbox for the study of bromodomains and epigenetic signaling” (Nature Communications, 2019) are Kd and activity values, retold here.

Assay [1] has as its target T1, EP300 (Homo sapiens, UniProt Q09472).
T1 sequence (Q09472 1049-1156 limits assumed): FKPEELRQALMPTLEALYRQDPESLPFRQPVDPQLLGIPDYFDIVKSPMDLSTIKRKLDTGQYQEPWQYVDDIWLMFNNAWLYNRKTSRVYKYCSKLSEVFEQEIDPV
In words: BROMOscan ligand-binding assay.
Source text: (§1) BROMOscan is a binding assay based on the well-known KINOMEscan technology. This assay measures the binding of a DNA-tagged bromodomain to an immobilized BRD ligand. If an inhibitor is present, it will compete with the bromodomain binding to the immobilized ligand, resulting in reduction of a quantitative PCR (qPCR) signal in a dose-dependent manner.

Assay [2] deals with T2, PCAF (Homo sapiens, UniProt Q92831).
T2 sequence (Q92831 723-827 limits assumed): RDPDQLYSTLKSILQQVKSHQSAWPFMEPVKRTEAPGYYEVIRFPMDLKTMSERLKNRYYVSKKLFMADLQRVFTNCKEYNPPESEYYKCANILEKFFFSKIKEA
In words: BROMOscan ligand-binding assay.
Source text: as §1

In assay [3] the target is T3, BRD7 (Homo sapiens, UniProt Q9NPI1).
T3 sequence (Q9NPI1 131-235 limits assumed): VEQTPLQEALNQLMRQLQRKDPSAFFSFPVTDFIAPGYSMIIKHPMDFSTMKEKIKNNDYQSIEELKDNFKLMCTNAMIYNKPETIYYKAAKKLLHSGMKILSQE
Briefly: BROMOscan ligand-binding assay.
Source text: as §1

Assay [4] concerns the target EP300 (Homo sapiens, UniProt Q09472). Briefly: Histone acetyltransferase (HAT) activity assay. The note with it: read-out: HATs Activity (%). It is filed as biochemical.
Assay [5] deals with T4, ATAD2B (Homo sapiens, UniProt Q9ULI0).
T4 sequence (Q9ULI0 951-1066 limits assumed): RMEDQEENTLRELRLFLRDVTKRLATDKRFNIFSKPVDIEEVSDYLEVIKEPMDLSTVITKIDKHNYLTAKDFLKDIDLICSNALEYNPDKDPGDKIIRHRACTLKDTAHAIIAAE
Briefly: BROMOscan ligand-binding assay.
Source text: as §1

The target of assay [6] is MYST3 (Homo sapiens, UniProt Q92794). In words: Histone acetyltransferase (HAT) activity assay. The format is biochemical. The note with it: read-out: HATs Activity (%).
MYST3, sequence (Q92794 whole entry, species assumed): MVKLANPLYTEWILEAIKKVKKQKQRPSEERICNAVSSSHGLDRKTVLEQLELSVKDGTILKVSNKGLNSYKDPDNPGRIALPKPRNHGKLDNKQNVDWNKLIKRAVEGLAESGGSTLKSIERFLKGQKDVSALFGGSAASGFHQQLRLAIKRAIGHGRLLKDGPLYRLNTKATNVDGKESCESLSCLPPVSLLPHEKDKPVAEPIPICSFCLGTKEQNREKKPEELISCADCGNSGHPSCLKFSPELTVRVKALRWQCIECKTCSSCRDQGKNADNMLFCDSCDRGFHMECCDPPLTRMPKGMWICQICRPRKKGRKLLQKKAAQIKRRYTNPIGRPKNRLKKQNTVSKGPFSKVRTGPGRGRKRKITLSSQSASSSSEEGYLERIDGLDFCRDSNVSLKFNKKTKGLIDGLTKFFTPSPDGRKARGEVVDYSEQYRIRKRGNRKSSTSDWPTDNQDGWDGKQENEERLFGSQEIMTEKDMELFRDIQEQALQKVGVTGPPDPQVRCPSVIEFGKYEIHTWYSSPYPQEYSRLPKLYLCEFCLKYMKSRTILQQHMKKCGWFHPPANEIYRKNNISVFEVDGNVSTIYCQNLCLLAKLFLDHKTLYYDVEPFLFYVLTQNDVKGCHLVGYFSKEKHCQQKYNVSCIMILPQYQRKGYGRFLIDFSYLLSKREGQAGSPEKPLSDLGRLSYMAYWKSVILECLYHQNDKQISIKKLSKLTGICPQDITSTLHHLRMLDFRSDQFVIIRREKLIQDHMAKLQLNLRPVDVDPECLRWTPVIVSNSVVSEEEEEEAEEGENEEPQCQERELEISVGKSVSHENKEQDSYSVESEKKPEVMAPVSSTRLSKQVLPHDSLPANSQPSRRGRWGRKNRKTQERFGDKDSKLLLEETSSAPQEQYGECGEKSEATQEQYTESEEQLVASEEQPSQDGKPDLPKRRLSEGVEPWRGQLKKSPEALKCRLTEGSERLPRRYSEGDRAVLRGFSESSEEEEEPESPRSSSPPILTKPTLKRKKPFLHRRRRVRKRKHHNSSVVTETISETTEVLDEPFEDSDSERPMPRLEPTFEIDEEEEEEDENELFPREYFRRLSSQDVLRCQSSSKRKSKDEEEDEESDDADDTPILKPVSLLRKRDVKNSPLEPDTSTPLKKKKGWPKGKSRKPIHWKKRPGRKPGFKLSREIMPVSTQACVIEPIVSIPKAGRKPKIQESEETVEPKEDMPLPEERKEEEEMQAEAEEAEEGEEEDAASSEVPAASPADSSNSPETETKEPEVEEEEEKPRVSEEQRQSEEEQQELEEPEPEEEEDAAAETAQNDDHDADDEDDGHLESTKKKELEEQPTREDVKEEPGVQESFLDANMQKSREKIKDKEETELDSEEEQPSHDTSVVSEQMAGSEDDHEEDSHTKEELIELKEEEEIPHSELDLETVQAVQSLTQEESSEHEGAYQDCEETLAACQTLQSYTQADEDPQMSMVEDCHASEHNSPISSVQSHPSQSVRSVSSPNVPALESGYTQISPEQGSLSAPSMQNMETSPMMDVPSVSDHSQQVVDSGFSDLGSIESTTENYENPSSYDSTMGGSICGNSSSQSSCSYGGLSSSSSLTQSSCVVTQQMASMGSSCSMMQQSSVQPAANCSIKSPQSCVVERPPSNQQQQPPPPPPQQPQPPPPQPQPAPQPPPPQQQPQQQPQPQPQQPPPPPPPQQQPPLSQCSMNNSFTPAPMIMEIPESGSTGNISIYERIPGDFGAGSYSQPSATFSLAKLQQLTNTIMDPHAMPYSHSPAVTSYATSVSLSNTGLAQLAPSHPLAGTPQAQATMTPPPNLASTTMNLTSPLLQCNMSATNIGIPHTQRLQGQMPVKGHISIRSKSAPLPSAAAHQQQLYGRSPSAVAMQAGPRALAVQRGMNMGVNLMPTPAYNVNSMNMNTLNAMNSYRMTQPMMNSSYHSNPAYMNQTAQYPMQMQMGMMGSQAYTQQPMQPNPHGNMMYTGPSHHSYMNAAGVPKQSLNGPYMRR
In assay [7] the target is T5, TRIM24(PHD,BRD) (Homo sapiens, UniProt O15164).
T5 sequence (O15164 824-1006 limits assumed): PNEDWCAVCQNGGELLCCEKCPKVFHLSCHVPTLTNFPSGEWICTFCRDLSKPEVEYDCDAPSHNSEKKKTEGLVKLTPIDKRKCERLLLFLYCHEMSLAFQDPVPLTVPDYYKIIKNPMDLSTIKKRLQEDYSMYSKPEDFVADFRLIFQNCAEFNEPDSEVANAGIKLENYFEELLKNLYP
Briefly: BROMOscan ligand-binding assay.
Source text: as §1

In assay [8] the target is BRD3(1,2) (Homo sapiens, UniProt Q15059). In words: BROMOscan ligand-binding assay.
BRD3(1,2), sequence (Q15059 24-416 limits assumed): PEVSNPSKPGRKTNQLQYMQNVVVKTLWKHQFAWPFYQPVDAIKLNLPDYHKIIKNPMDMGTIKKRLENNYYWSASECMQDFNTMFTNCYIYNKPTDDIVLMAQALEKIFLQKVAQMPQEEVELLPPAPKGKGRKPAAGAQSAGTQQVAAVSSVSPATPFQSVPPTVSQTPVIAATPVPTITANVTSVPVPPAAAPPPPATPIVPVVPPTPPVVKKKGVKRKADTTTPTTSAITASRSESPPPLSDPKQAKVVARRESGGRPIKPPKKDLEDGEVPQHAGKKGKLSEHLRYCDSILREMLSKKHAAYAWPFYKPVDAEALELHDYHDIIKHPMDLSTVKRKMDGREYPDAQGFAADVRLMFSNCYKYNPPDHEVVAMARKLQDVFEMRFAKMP
Source text: as §1
Assay [9] deals with BRD8(2) (Homo sapiens, UniProt Q9H0E9). In words: BROMOscan ligand-binding assay.
BRD8(2), sequence (Q9H0E9 1099-1207 limits assumed): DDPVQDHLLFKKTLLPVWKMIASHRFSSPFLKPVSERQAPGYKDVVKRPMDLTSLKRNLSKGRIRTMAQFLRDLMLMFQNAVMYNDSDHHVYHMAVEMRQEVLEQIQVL
Source text: as §1
In assay [10] the target is BRDT(2) (Homo sapiens, UniProt Q58F21). In words: BROMOscan ligand-binding assay.
Source text: as §1
For assay [11], the target named is GCN5L2 (Homo sapiens, UniProt Q92830). In words: Histone acetyltransferase (HAT) activity assay. The note with it: read-out: HATs Activity (%). The format is biochemical.
GCN5L2, sequence (Q92830 whole entry, species assumed): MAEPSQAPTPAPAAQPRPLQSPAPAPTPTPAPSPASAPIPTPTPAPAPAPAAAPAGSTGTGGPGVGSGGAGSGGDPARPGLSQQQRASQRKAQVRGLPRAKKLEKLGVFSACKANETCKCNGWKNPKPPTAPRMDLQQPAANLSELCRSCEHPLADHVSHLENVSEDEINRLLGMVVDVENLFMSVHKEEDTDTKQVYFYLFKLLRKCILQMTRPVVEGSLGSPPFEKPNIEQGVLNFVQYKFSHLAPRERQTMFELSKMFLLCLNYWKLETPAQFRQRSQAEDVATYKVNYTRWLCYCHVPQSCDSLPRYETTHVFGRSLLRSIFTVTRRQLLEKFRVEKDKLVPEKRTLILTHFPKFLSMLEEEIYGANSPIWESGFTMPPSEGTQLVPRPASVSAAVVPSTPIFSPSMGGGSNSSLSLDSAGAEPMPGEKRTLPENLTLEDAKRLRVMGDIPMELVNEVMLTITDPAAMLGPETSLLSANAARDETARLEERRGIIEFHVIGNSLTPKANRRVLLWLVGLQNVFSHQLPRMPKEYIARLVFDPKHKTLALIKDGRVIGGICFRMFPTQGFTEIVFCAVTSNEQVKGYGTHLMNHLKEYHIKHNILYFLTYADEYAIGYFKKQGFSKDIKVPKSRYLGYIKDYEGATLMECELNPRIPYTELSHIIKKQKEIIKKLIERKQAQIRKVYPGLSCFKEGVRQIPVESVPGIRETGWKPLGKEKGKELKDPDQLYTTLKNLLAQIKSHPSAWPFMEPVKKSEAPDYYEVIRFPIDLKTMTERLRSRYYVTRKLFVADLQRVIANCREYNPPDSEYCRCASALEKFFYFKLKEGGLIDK
Assay [12] has as its target T6, MYST1 (Homo sapiens, UniProt Q9H7Z6).
T6 sequence (Q9H7Z6 1-458): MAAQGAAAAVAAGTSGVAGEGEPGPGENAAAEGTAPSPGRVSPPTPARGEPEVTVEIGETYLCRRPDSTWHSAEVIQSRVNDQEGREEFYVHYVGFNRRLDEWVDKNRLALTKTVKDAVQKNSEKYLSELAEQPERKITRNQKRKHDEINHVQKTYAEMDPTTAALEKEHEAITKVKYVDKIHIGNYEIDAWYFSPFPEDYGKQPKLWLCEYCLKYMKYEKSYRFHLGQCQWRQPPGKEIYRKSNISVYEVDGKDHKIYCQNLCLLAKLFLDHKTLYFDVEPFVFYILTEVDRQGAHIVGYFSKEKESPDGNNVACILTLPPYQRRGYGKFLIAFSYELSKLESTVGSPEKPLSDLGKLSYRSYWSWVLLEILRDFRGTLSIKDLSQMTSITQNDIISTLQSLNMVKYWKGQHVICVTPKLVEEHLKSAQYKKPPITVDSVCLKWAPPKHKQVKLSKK
In words: Histone acetyltransferase (HAT) activity assay. It is filed as biochemical. The note with it: read-out: HATs Activity (%).

The target in assay [13] is T7, HAT1 (Homo sapiens, UniProt O14929).
T7 sequence (O14929 1-419): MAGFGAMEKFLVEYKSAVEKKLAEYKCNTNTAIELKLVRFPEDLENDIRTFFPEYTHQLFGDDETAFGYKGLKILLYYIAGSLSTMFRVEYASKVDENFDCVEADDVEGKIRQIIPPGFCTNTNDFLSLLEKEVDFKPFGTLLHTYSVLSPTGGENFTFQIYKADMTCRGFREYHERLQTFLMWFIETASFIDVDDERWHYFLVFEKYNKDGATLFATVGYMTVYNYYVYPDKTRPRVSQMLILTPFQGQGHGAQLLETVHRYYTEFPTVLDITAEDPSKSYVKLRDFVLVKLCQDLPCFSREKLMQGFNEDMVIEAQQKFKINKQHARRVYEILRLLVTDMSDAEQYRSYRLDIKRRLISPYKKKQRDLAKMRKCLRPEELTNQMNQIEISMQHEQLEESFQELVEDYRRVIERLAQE
Briefly: Histone acetyltransferase (HAT) activity assay. The format is biochemical. The note with it: read-out: HATs Activity (%).

In assay [14] the target is BRDT(1,2) (Homo sapiens, UniProt Q58F21). Briefly: BROMOscan ligand-binding assay.
Source text: as §1
The target in assay [15] is BRD4(fl) (Homo sapiens, UniProt O60885). In words: BROMOscan ligand-binding assay.
Source text: as §1
Assay [16] has as its target SMARCA2 (Homo sapiens, UniProt P51531). Briefly: BROMOscan ligand-binding assay.
Source text: as §1
Assay [17] deals with BRD2(1,2) (Homo sapiens, UniProt P25440). In words: BROMOscan ligand-binding assay.
Source text: as §1
[18] abbreviates: KD (BROMOscan), sheet prints no unit (nM).

In general, Kd refers to the free concentration of one partner at which half of the binding sites on the other are occupied at equilibrium, for simple one-to-one binding. Low values mean a tighter complex, high ones a looser complex.

SMARCA2, sequence (P51531 1-1572 isoform P51531-2): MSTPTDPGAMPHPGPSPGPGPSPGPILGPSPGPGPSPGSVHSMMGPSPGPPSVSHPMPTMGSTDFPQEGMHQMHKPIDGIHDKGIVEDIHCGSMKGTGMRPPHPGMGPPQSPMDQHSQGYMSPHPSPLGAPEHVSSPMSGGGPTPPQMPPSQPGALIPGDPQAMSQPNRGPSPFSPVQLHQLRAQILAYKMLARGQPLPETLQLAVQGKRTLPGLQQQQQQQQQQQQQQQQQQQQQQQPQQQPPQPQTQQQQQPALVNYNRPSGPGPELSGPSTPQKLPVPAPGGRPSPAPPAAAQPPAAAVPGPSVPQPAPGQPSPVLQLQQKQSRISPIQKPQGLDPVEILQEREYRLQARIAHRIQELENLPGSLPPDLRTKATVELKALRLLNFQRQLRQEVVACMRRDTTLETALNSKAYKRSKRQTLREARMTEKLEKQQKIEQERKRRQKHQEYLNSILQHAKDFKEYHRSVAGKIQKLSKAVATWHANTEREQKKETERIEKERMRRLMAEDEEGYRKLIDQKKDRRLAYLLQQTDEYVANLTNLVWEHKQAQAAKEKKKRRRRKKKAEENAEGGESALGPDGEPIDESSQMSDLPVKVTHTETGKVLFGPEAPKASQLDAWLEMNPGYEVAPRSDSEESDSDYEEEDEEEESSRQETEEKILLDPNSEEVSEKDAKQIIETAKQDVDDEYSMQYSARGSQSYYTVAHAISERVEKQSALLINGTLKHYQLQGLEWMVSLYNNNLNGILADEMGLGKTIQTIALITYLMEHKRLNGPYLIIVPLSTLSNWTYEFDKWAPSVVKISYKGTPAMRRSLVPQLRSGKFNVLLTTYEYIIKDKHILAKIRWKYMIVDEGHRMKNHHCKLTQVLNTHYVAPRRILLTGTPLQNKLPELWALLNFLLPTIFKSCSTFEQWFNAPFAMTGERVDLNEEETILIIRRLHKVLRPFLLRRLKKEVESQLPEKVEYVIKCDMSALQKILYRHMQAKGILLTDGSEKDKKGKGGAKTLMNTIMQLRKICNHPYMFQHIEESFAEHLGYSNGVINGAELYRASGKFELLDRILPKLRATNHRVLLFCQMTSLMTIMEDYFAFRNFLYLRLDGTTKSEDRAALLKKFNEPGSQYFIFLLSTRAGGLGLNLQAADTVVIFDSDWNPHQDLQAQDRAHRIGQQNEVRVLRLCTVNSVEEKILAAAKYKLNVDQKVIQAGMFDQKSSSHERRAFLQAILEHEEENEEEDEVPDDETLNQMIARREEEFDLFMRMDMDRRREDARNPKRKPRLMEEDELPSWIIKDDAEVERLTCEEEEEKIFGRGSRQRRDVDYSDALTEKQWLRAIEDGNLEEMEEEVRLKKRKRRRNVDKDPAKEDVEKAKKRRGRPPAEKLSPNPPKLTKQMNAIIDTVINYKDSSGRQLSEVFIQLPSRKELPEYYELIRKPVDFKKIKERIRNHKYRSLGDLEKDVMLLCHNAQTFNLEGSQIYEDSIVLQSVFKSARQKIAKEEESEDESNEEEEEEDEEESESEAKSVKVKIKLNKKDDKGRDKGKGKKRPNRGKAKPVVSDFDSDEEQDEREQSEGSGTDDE

In the case of `O=C(C=CN1CC2CC1CN2c1ccccn1)c1ccccc1O` (centres unmarked) [PFI-3], the Kd was greater than 30000 nM in assay [1] (setting [18]); greater than 100000 nM in [1] (KD, EP300); greater than 30000 nM in assay [2] (setting [18]); greater than 100000 nM in assay [2] (KD, PCAF); greater than 30000 nM in assay [3] (setting [18]); greater than 100000 nM in assay [3] (KD, BRD7). The Kd in assay [5] (setting [18]) is greater than 30000 nM; in [5] (KD, ATAD2B) it was greater than 100000 nM; in assay [7] (setting [18]) it was greater than 30000 nM; in [7] (KD, TRIM24(PHD,Bromo.)) it was greater than 100000 nM; in assay [8] (setting [18]), greater than 30000 nM; in [8] (KD, BRD3(1,2)), greater than 100000 nM. Moreover, the dissociation constant (Kd) is greater than 30000 nM in assay [9] (setting [18]); greater than 100000 nM in [9] (KD, BRD8(2)); greater than 30000 nM in assay [10] (setting [18]); greater than 100000 nM in [10] (KD, BRDT(2)); greater than 30000 nM in [14] (setting [18]); greater than 100000 nM in [14] (KD, BRDT(1,2)). The activity at 1 µM in assay [4] was 98%; in [6] it was 95%; in assay [11], 99%; in assay [12] it was 99%; in assay [13], 96%. For the same compound, the activity at 10 µM in assay [4] worked out at 97%; in [6], 96%; in assay [11] it was 101%; in assay [12], 99%; in [13], 94%.

As to `COc1ccc(CCc2nc3cc(-c4c(C)noc4C)ccc3n2C[C@H](C)N2CCOCC2)cc1Cl` [SGC-CBP30], the Kd was greater than 30000 nM in [2] (setting [18]); greater than 100000 nM in assay [2] (KD, BROMOscan, PCAF); 39000 nM in [3] (KD, BROMOscan, BRD7); greater than 30000 nM in assay [5] (setting [18]); greater than 100000 nM in assay [5] (KD, BROMOscan, ATAD2B); 6500 nM in [7] (KD, BROMOscan, TRIM24(PHD,Bromo.)). The Kd in [8] (KD, BROMOscan, BRD3(1,2)) was 1100 nM; in assay [9] (setting [18]), greater than 30000 nM; in [9] (KD, BROMOscan, BRD8(2)) it was greater than 100000 nM; in assay [15], 0.587 µM; in assay [10] (setting [18]), greater than 30000 nM; in assay [10] (KD, BROMOscan, BRDT(2)) it was greater than 100000 nM. Also, the Kd in [16] (setting [18]) is greater than 30000 nM; in assay [16] (KD, BROMOscan, SMARCA2) it was greater than 100000 nM; in [17], 0.65 µM; in [14] (KD, BROMOscan, BRDT(1,2)), 3100 nM. Further, the activity at 1 µM was 98% in assay [4]; 103% in assay [6]; 101% in assay [11]; 103% in assay [12]; 96% in [13]. In addition, the activity at 10 µM was 92% in assay [4]; 103% in assay [6]; 101% in assay [11]; 97% in assay [12]; 97% in assay [13].

As for `O=C(O)c1ccccc1O` [Salicylic Acid], the Kd in [1] (KD, EP300) is greater than 1.4e+07 nM; in assay [2] (KD, PCAF) it was greater than 1.4e+07 nM; in assay [3] (KD, BRD7), greater than 1.4e+07 nM; in assay [5] (KD, ATAD2B), greater than 1.4e+07 nM; in [7] (KD, TRIM24(PHD,Bromo.)), greater than 1.4e+07 nM; in assay [9] (KD, BRD8(2)), greater than 1.4e+07 nM. For the same compound, the Kd in assay [15] is greater than 14000 µM; in [10] (KD, BRDT(2)), greater than 1.4e+07 nM; in [16] (KD, SMARCA2), 250000 nM; in [17], 7300 µM; in assay [14] (KD, BRDT(1,2)), 6.1e+06 nM.
